Data from patent US20140088039A1, “OPHTHALMIC SOLUTION CONTAINING HYALURONIC ACID OR SALT THEREOF AND PROPYLENE GLYCOL” (priority 2011, published 2014).

Test system: SV40 immortalized human corneal epithelial cells (HCE-T)
Assay: Evaluation test of protective effect on corneal epithelial cell (drying load)
Type: cell-based
Settings: 1 h pre-culture with 0.25% (w/v) propylene glycol and/or 0.03% (w/v) sodium hyaluronate, dried 7.5 minutes, FIG. 1
Method: SV40 immortalized human corneal epithelial cells: (HCE-T: RIKEN BioResource Center, Japan, Cell No.: RCB2280) were seeded to a 96-well plate (1×10^4 cells/well) and cultured for one day in an SHEM culture medium. On the next day, the culture medium was replaced with a D-MEM/F12 culture medium containing 0.25% (w/v) propylene glycol, 0.03% (w/v) sodium hyaluronate, or 0.25% (w/v) propylene glycol and 0.03% (w/v) sodium hyaluronate, and thereafter the corneal epithelial cells were cultured for one hour (hereinafter, each also referred to as a “propylene glycol alone group,” a “hyaluronic acid alone group,” or a “propylene glycol/hyaluronic acid combination group”). It is noted that a group that a culture medium was replaced with a D-MEM/F12 culture medium not containing a tested substance and thereafter the corneal epithelial cells were cultured for one hour was defined as a “vehicle group”. After culture, a culture medium of each group was replaced with a D-MEM/F12 culture medium not containing a tested substance and then cells were dried for 7.5 minutes. After drying load, cell viability was measured using Cell Proliferation Assay Kit (manufactured by Promega, catalogue No.: G3580) (corresponding to absorbance of 490 nm).

| Compound | Suppression of decrease in cell viability of corneal epithelial cells due to drying load |
| --- | --- |
| CC(O)CO (centres unmarked) [propylene glycol] | not sufficiently suppressed |
| sodium hyaluronate [hyaluronic acid] | not sufficiently suppressed |
